# Assay results published in patent US5321037A, “Isoxazole derivatives for use as cerebro-active drugs and central muscle relaxants” (Sankyo Company, Limited, priority 1986, dated 1994).
# Structures can show the parent of a compound that is named as a salt. Where two headings read alike, the source gives them in different places.
# How the values were obtained:
# [1] = test system: ischemia-induced neurological symptoms in SHR SP; assay: Improvement in ischemia-induced neurological symptoms in Spontaneously Hypertensive Rats Stroke Prone (SHR SP) caused by ligation of the bilateral common carotid arteries; type: in vivo, rat (SHR SP); settings: 100 mg/kg
# Procedure: The test animals employed were male adult SHR SPs (13 or 15 weeks old). They were used in groups each consisting of about 10 animals. Under halothane anesthesia, both common carotid arteries of each animal were ligated to prepare a brain ischemia model. The halothane anesthesia was stopped immediately after the ligation, and then the time taken to recover the righting reflex, the onset time of convulsions and the survival time were determined. The test solution was prepared in the same manner as described in Experiment 1 and was administered to the animal intraperitoneally 30 minutes before the ligation. A 0.5% CMC solution was administered to the control group in the same manner. The statistical analysis was carried out in a similar manner to that in Experiment 1. The statistical analysis of the survival rate was carried out by the X^2 test.
# [2] = test system: decerebrate rigidity in rats; assay: Suppression of decerebrate rigidity in rats; type: in vivo, rat
# Text: The suppression of decerebrate rigidity in laboratory animals, such as rats, is a well known model for control of human spasticity and/or rigidity.
# In the test method, a rat was anesthetized with halothane and fixed on a stereotaxic apparatus (SR-5, Narishige). In accordance with the brain atlas by Pellegrino et al., [L. J. Pellegrino, A. S. Pellegrino & A. J. Cushman: A Stereotaxic Atlas of the Rat Brain, Plenum Press, New York and London (1967)], an electrode 0.7 mm in diameter, which was insulated except for 1 mm at the tip, was inserted bilaterally into the midbrain reticular formation (AP: 0, L: ±1.5, H: -3.0). A clip serving as the reference electrode was fixed on the temporal muscle. Through these electrodes, a high frequency electric current (100 KHz, 10 to 20 mA) was applied from a lesion generator (Glass Co., LM4A) for 2 to 3 minutes to cauterize electrically this brain region.
# The rat was then immediately set free from the stereotaxic apparatus. A polyethylene cannula was inserted into the duodenum and fixed with an acrylic resin (Aron Alfa, Sankyo Co., Ltd.). After completion of these operations, halothane anesthesia was immediately discontinued.
# After 1.5 hours, when the animal awoke from the anesthesia, the rat was fixed on an apparatus devised in our laboratory for a hind leg fixation. Both hind legs were fixed at the anterior part of the ankle joints. Both hindlimb paws were then pushed in 4 mm for 6 seconds in every minute. The resulting repulsive tension was drawn on a polygraph through a strain gauge.
# The test compounds were suspended in a 0.5% w/v CMC (carboxymethyl cellulose) aqueous solution and were administered orally (p.o.) or intraperitoneally (i.p.).
# The results are summarized in the following Table 7, where the compounds of the present invention are identified by the number of the foregoing Example in which each was prepared, Compound X is the known compound eperisone hydrochloride, and Compound Y is the known compound afloqualone.
# [3] = test system: decerebrate rigidity (cats); assay: Suppression of decerebrate rigidity (cats); type: in vivo, cat
# Text: Adult cats each weight 3.0 to 4.5 kg were used. Under ether anesthesia, the trachea was cannulated and the common carotid arteries were ligated at both sides. The cat was decerebrated by suction at the precollicular level. Ether anesthesia was then immediately discontinued. A pair of needle electrodes was inserted into the neck muscle in order to pick up any EMG muscular discharges. The EMG discharge was amplified and recorded on a pen-writing recorder, along with an integration of the EMG discharge. Recording was started at least 2 hours after withdrawal of anesthesia. Blood pressure induced from the femoral artery, as well as body temperature and heart beat, were recorded and monitored throughout the experiment.
# After stable EMG discharges were obtained, the test compounds suspended in 0.5% CMC solution were administered into the duodenum through a previously inserted cannula. The effect of the test compound was expressed as the ratio of the integrated EMG discharge after administration relative to the value before administration.
# thiopental anesthesia = assay: Potentiation of thiopental anesthesia (mice); type: in vivo, mouse (ddY strain); settings: for Anesthesia time: thiopental 30 mg/kg after one hour
# Procedure: In the test method, male adult mice of ddY strain each weighing 20 to 30 g were used as divided groups each made up of 5 to 7 mice. Test compounds suspended in 0.5% CMC solution were orally administered. After one hour, thiopental (30 mg/kg) was injected into the tail vein, and the time required for the mouse to recover the righting reflex was measured.
# spinal reflex in cats = assay: Effect on spinal reflex in cats; type: in vivo, cat; settings: for Mechanism shown by spinal reflexes: in vivo
# Procedure: Adult cats weighing 3.0 to 4.5 kg each were used. After induction of anesthesia with ether, the animal was anesthetized by intravenous injection of 50 mg/kg of a-chloralose. After the trachea was cannulated, the animal was fixed on a stereotaxic apparatus, and the lumbosacral spinal cord was exposed by laminectomy from L3 to S1. The ventral roots of the right side were cut from L6 to S1 as distal as possible and the cut ends were ligated with cotton thread previously immersed in Ringer's solution. The exposed spinal cord was covered with warmed mineral oil and maintained at 37° C. The ventral root, either L7 or S1, was fixed on a pair of platinum wire electrodes. A pair of collar-type electrodes was implanted on the ipsilateral tibial nerve and the saphenous nerve, for stimulation. After completion of all these operations, the cat was immobilized with pancronium bromide (0.5 mg/kg, i.v.) and maintained by artificial respiration (40/minute). Recording was started at least 2 hours after withdrawal of ether anesthesia. A single square pulse (0.01 to 0.1 msecond pulse width, supramaximal intensity) was applied to the nerve at a frequency of 0.3 Hz from an electronic stimulator. […] In a similar manner to Experiment 2, the blood pressure, heart beat and body temperature of the animal were recorded and monitored. Compounds to be tested were also administered in a similar manner.
# [4] = Rattus norvegicus, ip, 50 mg/kg i.p., read-out: Maximum inhibition
# [5] = Rattus norvegicus, po, 30 mg/kg p.o., read-out: Maximum inhibition
# [6] = Rattus norvegicus, po, 50 mg/kg p.o., read-out: Maximum inhibition
# [7] = Rattus norvegicus, po, 100 mg/kg p.o., read-out: Maximum inhibition
# [8] = 100 mg/kg, administered as in Experiment 2
# [9] = 100 mg/kg, after administration
# [10] = Rattus norvegicus, po, read-out: Maximum inhibition
smiles,measurement,setting,value
O=c1c(Cl)c(-c2ccccc2)on1CC(O)CN1CCOCC1 (centres unmarked) [Compound 2a],"Onset time of convulsions and survival time, in words",[1],"prolonged onset time of convulsions, survival time significantly"
same,Duration of the effect,[2]; 30 mg/kg p.o.,> 90 min
same,Onset of the effect,[2]; 30 mg/kg p.o.,5 min
same,Duration of the effect,[2]; 50 mg/kg i.p.,> 120 min
same,Onset of the effect,[2]; 50 mg/kg i.p.,10 min
same,Duration of the effect,[2]; 50 mg/kg p.o.,> 90 min
same,Onset of the effect,[2]; 50 mg/kg p.o.,5 min
same,Duration of the effect,[2]; 100 mg/kg p.o.,> 90 min
same,Onset of the effect,[2]; 100 mg/kg p.o.,5 min
same,inhibition in vivo at 50 mg/kg,[2]; [4],50%
same,inhibition in vivo at 30 mg/kg,[2]; [5],55%
same,inhibition in vivo at 50 mg/kg,[2]; [6],90%
same,inhibition in vivo at 100 mg/kg,[2]; [7],100%
same,Inhibition of decerebrate rigidity,"[3]; 100 mg/kg intraduodenal, 5 minutes after administration",About 30%
same,Inhibition of decerebrate rigidity,"[3]; 100 mg/kg intraduodenal, 1 hour after administration",about 65%
same,Duration of inhibitory effects,"[3]; 100 mg/kg intraduodenal, throughout the observation period",≥ 2 h
same,Side effects and duration of action compared with eperisone hydrochloride,[3]; compared with eperisone hydrochloride,weaker in side effects and of longer action than eperisone hydrochloride
same,Anesthesia time,thiopental anesthesia; 100 mg/kg p.o.,329.1 ± 81.2 s
same,"Drowsiness (the adverse effect), implied",thiopental anesthesia; compared with afloqualone,induce drowsiness (the adverse effect) less than afloqualone
same,"Prolongation of the duration of thiopental-induced anesthesia, in words",thiopental anesthesia; in comparison with eperisone hydrochloride,did not significantly prolong the duration of thiopental-induced anesthesia
same,Duration of the effect on spinal reflexes,spinal reflex in cats; 100 mg/kg,about 2 hours
same,Monosynaptic reflex,spinal reflex in cats; [8],little affected
same,Polysynaptic reflex,spinal reflex in cats; [8],remarkably inhibited
same,Spino-bulbo-spinal reflex,spinal reflex in cats; [8],remarkably inhibited
same,Onset of the effect on spinal reflexes,spinal reflex in cats; [9],5 min
same,Time of maximum effect on spinal reflexes,spinal reflex in cats; [9],30 min
same,Mechanism shown by spinal reflexes,spinal reflex in cats,interneuron blockers
Cc1cc(=O)n(CC(O)CN2CCOCC2)o1 (centres unmarked) [Compound 3a],Duration of the effect,[2]; 50 mg/kg i.p.,50 min
same,Onset of the effect,[2]; 50 mg/kg i.p.,5 min
same,inhibition in vivo at 50 mg/kg,[2]; [4],30%
O=c1cc(-c2ccc(Cl)cc2)on1CC(O)CN1CCOCC1 (centres unmarked) [Compound 4a],Duration of the effect,[2]; 50 mg/kg i.p.,> 120 min
same,Onset of the effect,[2]; 50 mg/kg i.p.,5 min
same,inhibition in vivo at 50 mg/kg,[2]; [4],80%
CC(C)NCC(O)Cn1oc(-c2ccccc2)c(Cl)c1=O (centres unmarked) [Compound 5a],Duration of the effect,[2]; 50 mg/kg i.p.,> 120 min
same,Onset of the effect,[2]; 50 mg/kg i.p.,5 min
same,inhibition in vivo at 50 mg/kg,[2]; [4],95%
CC(C)NCC(O)Cn1oc(-c2ccccc2)cc1=O (centres unmarked) [Compound 6a],Duration of the effect,[2]; 50 mg/kg i.p.,60 min
same,Onset of the effect,[2]; 50 mg/kg i.p.,5 min
same,inhibition in vivo at 50 mg/kg,[2]; [4],30%
CC(C)NCC(O)Cn1oc(-c2ccc(Cl)cc2)cc1=O (centres unmarked) [Compound 7a],Duration of the effect,[2]; 50 mg/kg i.p.,60 min
same,Onset of the effect,[2]; 50 mg/kg i.p.,5 min
same,inhibition in vivo at 50 mg/kg,[2]; [4],75%
"CCc1ccc(C(=O)C(C)CN2CCCCC2)cc1 (centres unmarked) [Compound X, eperisone hydrochloride, reference compound]",Duration of the effect,[2]; 10 mg/kg p.o.,> 30 min
same,Onset of the effect,[2]; 10 mg/kg p.o.,10 min
same,Duration of the effect,[2]; 30 mg/kg p.o.,45 min
same,Onset of the effect,[2]; 30 mg/kg p.o.,10 min
same,Duration of the effect,[2]; 50 mg/kg p.o.,30 min
same,Onset of the effect,[2]; 50 mg/kg p.o.,10 min
same,Duration of the effect,[2]; 100 mg/kg p.o.,60 min
same,Onset of the effect,[2]; 100 mg/kg p.o.,5 min
same,inhibition in vivo at 10 mg/kg,"[2]; Rattus norvegicus, po, 10 mg/kg p.o., read-out: Maximum inhibition",30%
same,inhibition in vivo at 30 mg/kg,[2]; [5],30%
same,inhibition in vivo at 50 mg/kg,[2]; [6],50%
same,inhibition in vivo at 100 mg/kg,[2]; [7],50%
same,"Inhibition of decerebrate rigidity, in words",[3]; 50 mg/kg intraduodenal,decerebrate rigidity was inhibited
same,"Side effects (vomiting, changes in blood pressure and heart beat)",[3]; 50 mg/kg intraduodenal,induced vomiting immediately after administration accompanied with abrupt changes in blood pressure and heart beat
same,Time after administration at which decerebrate rigidity returned,[3]; 50 mg/kg intraduodenal,30 min
same,Anesthesia time,thiopental anesthesia; 10 mg/kg p.o.,182.0 ± 9.8 s
same,Anesthesia time,thiopental anesthesia; 30 mg/kg p.o.,192.0 ± 18.3 s
same,Anesthesia time,thiopental anesthesia; 100 mg/kg p.o.,247.0 ± 34.9 s
"Cc1ccccc1-n1c(CF)nc2ccc(N)cc2c1=O [Compound Y, afloqualone, reference compound]",Duration of the effect,[2]; 5 mg/kg p.o.,60 min
same,Onset of the effect,[2]; 5 mg/kg p.o.,10 min
same,Duration of the effect,[2]; 10 mg/kg p.o.,45 min
same,Onset of the effect,[2]; 10 mg/kg p.o.,10 min
same,Duration of the effect,[2]; 30 mg/kg p.o.,120 min
same,Onset of the effect,[2]; 30 mg/kg p.o.,10 min
same,inhibition in vivo at 5 mg/kg,[2]; [10],25%
same,inhibition in vivo at 10 mg/kg,[2]; [10],55%
same,inhibition in vivo at 30 mg/kg,[2]; [10],70%
same,Anesthesia time,thiopental anesthesia; 10 mg/kg p.o.,242.0 ± 10.0 s
same,"Prolongation of the duration of anesthesia, in words",thiopental anesthesia; 30 mg/kg,did significantly prolong the duration of anesthesia
same,Anesthesia time,thiopental anesthesia; 30 mg/kg p.o.,4657.0 ± 636.6 s
"Cc1c(-c2ccccc2)on(CC(O)CN2CCOCC2)c1=O.Cl (centres unmarked) [Example 2, 2-(2-Hydroxy-3-morpholinopropyl)-4-methyl-5-phenyl-3-isoxazolone hydrochloride]",Duration of the effect,[2]; 100 mg/kg i.p.,> 90 min
same,Onset of the effect,[2]; 100 mg/kg i.p.,5 min
same,inhibition in vivo at 100 mg/kg,"[2]; Rattus norvegicus, ip, 100 mg/kg i.p., read-out: Maximum inhibition",60%
"Cc1c(OCC(O)CN2CCOCC2)noc1-c1ccccc1 (centres unmarked) [Example 5, 3-(2-Hydroxy-3-morpholinopropoxy)-4-methyl-5-phenylisoxazole]",Duration of the effect,[2]; 100 mg/kg p.o.,> 90 min
same,Onset of the effect,[2]; 100 mg/kg p.o.,5 min
same,inhibition in vivo at 100 mg/kg,[2]; [7],70%
"NC(=O)OCC(O)Cn1oc2ccc(Cl)cc2c1=O (centres unmarked) [Example 15, 2-(3-Carbamoyloxy-2-hydroxypropyl)-5-chloro-1,2-benzisoxazol-3-one]",Duration of the effect,[2]; 50 mg/kg i.p.,> 60 min
same,Onset of the effect,[2]; 50 mg/kg i.p.,5 min
same,inhibition in vivo at 50 mg/kg,[2]; [4],50%
"NC(=O)OCC(O)COc1ccc(Cl)cc1 (centres unmarked) [chlorphenesin carbamate, reference compound]","Effect on spinal reflexes, compared with Compounds 1a and 2a",spinal reflex in cats; 100 mg/kg,A similar effect was observed
same,Mechanism shown by spinal reflexes,spinal reflex in cats,interneuron blockers
